Here are results for 28 compounds from patent US12630498B2 (Genzyme Corporation, priority 2019, dated 2026).

The target in this experiment is T1, human Cystic Fibrosis Transmembrane Conductance Regulator (CFTR) harboring the ΔF508 mutation (Homo sapiens, UniProt P13569, DEL508-508).
T1 construct: expressed in transfected cells; host or cells: H441 carcinoma line (G418-selected)
Briefly: H441 cell ΔF508-CFTR-HRP cell surface assay (Emax and EC50). Format: cell-based. The settings on record: for Emax: NCI-H441, NA = Not active. In short, it runs like this: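 H441 and 41o- bronchial epithelial cells expressing ΔF508-CFTR with an extracellular-loop-4 HRP tag were treated with a 15-point compound series (24.5–0.001 μM) for two nights, H441 at 27° C, 41o- at 37° C with 0.0005 mg/ml doxycycline. Surface HRP luminescence read; % of maximum VX809 signal and EC50 derived.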

T1 sequence (P13569 with tags, fused parts or gaps DEL508-508): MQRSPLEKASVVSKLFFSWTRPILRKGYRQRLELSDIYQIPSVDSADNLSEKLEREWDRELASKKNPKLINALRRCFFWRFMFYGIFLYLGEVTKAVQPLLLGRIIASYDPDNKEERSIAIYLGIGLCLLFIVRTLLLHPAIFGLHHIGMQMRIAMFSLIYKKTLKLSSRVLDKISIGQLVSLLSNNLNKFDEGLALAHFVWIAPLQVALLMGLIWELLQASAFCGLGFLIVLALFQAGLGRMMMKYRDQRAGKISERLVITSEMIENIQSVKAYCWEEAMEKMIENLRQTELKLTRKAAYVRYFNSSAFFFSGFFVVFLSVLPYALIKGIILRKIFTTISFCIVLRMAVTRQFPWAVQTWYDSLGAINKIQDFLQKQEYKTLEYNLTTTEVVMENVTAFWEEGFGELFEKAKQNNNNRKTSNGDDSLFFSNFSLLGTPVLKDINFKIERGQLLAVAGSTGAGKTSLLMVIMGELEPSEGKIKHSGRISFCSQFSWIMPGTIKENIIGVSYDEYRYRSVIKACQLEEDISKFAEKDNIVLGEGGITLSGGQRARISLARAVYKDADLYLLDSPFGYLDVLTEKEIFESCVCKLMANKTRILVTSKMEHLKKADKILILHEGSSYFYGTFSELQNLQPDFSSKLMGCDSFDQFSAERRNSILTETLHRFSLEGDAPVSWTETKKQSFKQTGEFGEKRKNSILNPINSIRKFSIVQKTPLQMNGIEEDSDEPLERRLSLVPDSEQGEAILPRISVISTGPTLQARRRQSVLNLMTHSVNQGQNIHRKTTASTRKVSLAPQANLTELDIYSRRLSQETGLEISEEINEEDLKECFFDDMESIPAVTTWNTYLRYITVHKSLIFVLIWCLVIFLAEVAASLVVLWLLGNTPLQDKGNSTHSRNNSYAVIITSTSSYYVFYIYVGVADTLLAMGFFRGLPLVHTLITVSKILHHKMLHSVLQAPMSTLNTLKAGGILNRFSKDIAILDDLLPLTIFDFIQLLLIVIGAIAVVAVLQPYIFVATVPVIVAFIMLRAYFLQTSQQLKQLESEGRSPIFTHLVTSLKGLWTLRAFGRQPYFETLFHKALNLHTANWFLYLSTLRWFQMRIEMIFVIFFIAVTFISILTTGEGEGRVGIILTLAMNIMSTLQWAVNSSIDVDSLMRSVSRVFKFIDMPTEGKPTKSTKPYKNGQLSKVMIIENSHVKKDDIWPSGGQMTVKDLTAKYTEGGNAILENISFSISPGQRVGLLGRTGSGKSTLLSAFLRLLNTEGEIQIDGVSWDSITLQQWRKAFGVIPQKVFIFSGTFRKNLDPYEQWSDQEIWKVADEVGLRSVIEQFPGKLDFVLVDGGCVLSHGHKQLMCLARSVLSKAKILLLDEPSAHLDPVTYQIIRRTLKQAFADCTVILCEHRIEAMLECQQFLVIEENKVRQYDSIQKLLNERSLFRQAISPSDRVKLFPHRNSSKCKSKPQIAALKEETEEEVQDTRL

In the case of `C[C@@H](OCc1ccccc1)C(NC(=O)c1ccc2ccccc2c1OCc1nc2ccccc2s1)C(=O)O` (stereo partly drawn) [Example 148, (3R)-2-(1-(benzo[d]thiazol-2-ylmethoxy)-2-naphthamido)-3-(benzyloxy)butanoic Acid], the EC50 stood at 18.3 µM and the Emax was determined as 65.2%.

In turn, `CC(OCc1ccccc1)[C@H](NC(=O)c1ccc2cc(F)ccc2c1OCc1nc2ccccc2s1)C(=O)O` (stereo in doubt) [Example 215, N-(1-(benzo[d]thiazol-2-ylmethoxy)-6-fluoro-2-naphthoyl)-O-benzyl-L-allothreonine] yielded an EC50 of 5.7 µM and an Emax of 89.9%.

Compound `NC(N)=Nc1ccc(C[C@@H](NC(=O)c2ccc3ccccc3c2OCc2ccc(C(F)(F)F)cc2)C(=O)O)cc1` [Example 105, (R)-3-(4-((diaminomethylene)amino)phenyl)-2-(1-((4-(trifluoromethyl)benzyl)oxy)-2-naphthamido)propanoic Acid] registered an Emax of 18.8%.

The compound `CC(C)(c1ccccc1)[C@H](NC(=O)c1ccc2ccccc2c1OCc1ccc(S(C)(=O)=O)cc1)C(=O)O` [Example 23, (S)-3-methyl-2-(1-((4-(methylsulfonyl)benzyl)oxy)-2-naphthamido)-3-phenylbutanoic Acid] showed an EC50 of 9.8 µM and an Emax of 29.2%.

Compound `NC12CCC(C(NC(=O)c3ccc4cc(F)ccc4c3OCc3ccc(C(F)(F)F)cc3)C(=O)O)(CC1)CC2` (stereo not drawn) [Example 185, 2-(4-aminobicyclo[2.2.2]octan-1-yl)-2-(6-fluoro-1-((4-(trifluoromethyl)benzyl)oxy)-2-naphthamido)acetic Acid] registered an Emax of 14%.

The compound `O=C(N[C@H](Cc1ccccc1)C(=O)O)c1ccc2ccccc2c1OCc1ccc(C(F)(F)F)cc1` [Example 89, (1-((4-(trifluoromethyl)benzyl)oxy)-2-naphthoyl)-D-phenylalanine] gave an EC50 of 1.4 µM and an Emax of 47.6%.

On to `N#Cc1ccc(C[C@H](NC(=O)c2ccc3ccccc3c2OCc2ccc(C(F)(F)F)cc2)C(=O)O)cc1` [Example 107, (S)-3-(4-cyanophenyl)-2-(1-((4-(trifluoromethyl)benzyl)oxy)-2-naphthamido)propanoic Acid], for which the EC50 was determined as 10.9 µM and the Emax stood at 63.4%.

In turn, `O=C(N[C@@H](Cc1ccccc1)C(=O)O)c1ccc2ccccc2c1OCc1ccc(C(F)(F)F)cc1` [Example 87, (1-((4-(trifluoromethyl)benzyl)oxy)-2-naphthoyl)-L-phenylalanine] returned an EC50 of 2.1 µM and a maximal response (Emax) of 103%.

The compound `O=C(N[C@@H](Cc1ccc(C(F)(F)F)cc1)C(=O)O)c1ccc2ccccc2c1OCc1nc2ccccc2s1` [Example 213, (S)-2-(1-(benzo[d]thiazol-2-ylmethoxy)-2-naphthamido)-3-(4-(trifluoromethyl)phenyl)propanoic Acid] showed an EC50 of 13.1 µM and an Emax of 87.2%.

Regarding `O=C(N[C@@H](Cc1ccccc1)C(=O)O)c1ccc2ccccc2c1OCc1cccc2c1OC(F)(F)O2` [Example 102, (1-((2,2-difluorobenzo[d][1,3]dioxol-4-yl)methoxy)-2-naphthoyl)-L-phenylalanine], the EC50 is 8 µM and the maximum response (Emax) stood at 33.7%.

In the case of `O=C(N[C@@H](Cc1ccccc1)C(=O)O)c1ccc2ccccc2c1OCc1ccc(Br)cc1` [Example 122, (1-((4-bromobenzyl)oxy)-2-naphthoyl)-L-phenylalanine], the EC50 was 0.3 µM and the Emax was 24.5%.

`O=C(N[C@@H](Cc1ccncc1)C(=O)O)c1ccc2ccccc2c1OCc1ccc(C(F)(F)F)cc1` [Example 103, (S)-3-(pyridin-4-yl)-2-(1-((4-(trifluoromethyl)benzyl)oxy)-2-naphthamido)propanoic Acid] displayed an Emax of 22.4%.

Take `CC(C)(C)C[C@H](NC(=O)c1ccc2cc(F)ccc2c1OCc1ccc(SC(F)(F)F)cc1)C(=O)O` [Example 117, (S)-2-(6-fluoro-1-((4-((trifluoromethyl)thio)benzyl)oxy)-2-naphthamido)-4,4-dimethylpentanoic Acid]: the EC50 is 1.6 µM and the maximal effect (Emax) was 47%.

With `O=C(N[C@H](C(=O)O)C12CC(C(F)(F)F)(C1)C2)c1ccc2cc(F)ccc2c1OCc1ccc(OC(F)(F)F)cc1` [Example 4, (S)-2-(6-fluoro-1-((4-(trifluoromethoxy)benzyl)oxy)-2-naphthamido)-2-(3-(trifluoromethyl)bicyclo[1.1.1]pentan-1-yl)acetic Acid], the EC50 was determined as 0.7 µM and the Emax came out at 37.2%.

Compound `Nc1ccc2c(OCc3ccc(C(F)(F)F)cc3)c(C(=O)N[C@H](C(=O)O)C3CCCC3)ccc2c1` [Example 187, (S)-2-(6-amino-1-((4-(trifluoromethyl)benzyl)oxy)-2-naphthamido)-2-cyclopentylacetic Acid] returned an EC50 of 11.4 µM and an Emax of 70.8%.

Turning to `O=C(N[C@H](C(=O)O)C12CC(C(F)(F)F)(C1)C2)c1ccc2ccccc2c1OCc1ccc(S(=O)(=O)C(F)(F)F)cc1` [Example 3, (S)-2-(3-(trifluoromethyl)bicyclo[1.1.1]pentan-1-yl)-2-(1-((4-((trifluoromethyl)sulfonyl)benzyl)oxy)-2-naphthamido)acetic Acid], the EC50 was found to be 2.2 µM and the Emax came to 18.1%.

In turn, `CC(C)(O)[C@H](NC(=O)c1ccc2ccccc2c1OCc1ccc(C(F)(F)F)cc1)C(=O)O` [Example 138, (S)-3-hydroxy-3-methyl-2-(1-((4-(trifluoromethyl)benzyl)oxy)-2-naphthamido)butanoic Acid] yielded an EC50 of 16.4 µM and an Emax of 22.4%.

`O=C(N[C@@H](Cc1ccc(C(F)(F)F)cc1)C(=O)O)c1ccc2ccccc2c1OCc1ccc(OC(F)(F)F)cc1` [Example 190, (S)-2-(1-((4-(trifluoromethoxy)benzyl)oxy)-2-naphthamido)-3-(4-(trifluoromethyl)phenyl)propanoic Acid] registered an EC50 of 7 µM and a maximal response (Emax) of 17.9%.

`CCC(C)(C)[C@H](NC(=O)c1ccc2c(F)cc(C)cc2c1OCc1ccc(OC(F)(F)F)cc1)C(=O)O` [Example 273, (2S)-2-[[5-fluoro-7-methyl-1-[[4-(trifluoromethoxy)phenyl]methoxy]naphthalene-2-carbonyl]amino]-3,3-dimethyl-pentanoic Acid] yielded an EC50 of 0.1 µM and a maximum response (Emax) of 339%.

Turning to `CC(C)(C)C[C@H](NC(=O)c1ccc2ccccc2c1OC[C@H]1CC[C@@H](C(F)(F)F)CC1)C(=O)O` [Example 180, (S)-4,4-dimethyl-2-(1-(((1s,4R)-4-(trifluoromethyl)cyclohexyl)methoxy)-2-naphthamido)pentanoic Acid], the midpoint of the response, the EC50, lay at 10 µM and the Emax amounted to 70.7%.

`CC(C)(C)[C@H](NC(=O)c1ccc2ccccc2c1OCC1(C(F)(F)F)CC1)C(=O)O` [Example 268, (2S)-3,3-dimethyl-2-[[1-[[1-(trifluoromethyl)cyclopropyl]methoxy]naphthalene-2-carbonyl]amino]butanoic Acid] displayed an EC50 of 15.4 µM and a maximum response (Emax) of 74%.

`CC(C)(C)[C@H](NC(=O)c1ccc2ccccc2c1OCc1ccc(C(F)(F)F)cn1)C(=O)O` [Example 2, (S)-3,3-dimethyl-2-(1-((5-(trifluoromethyl)pyridin-2-yl)methoxy)-2-naphthamido)butanoic Acid] had an EC50 of 4.8 µM and an Emax of 151%.

`CC(C)(c1ccccc1)[C@H](NC(=O)c1ccc2cc(F)ccc2c1OCc1ccc(SC(F)(F)F)cc1)C(=O)O` [Example 22, (S)-2-(6-fluoro-1-((4-((trifluoromethyl)thio)benzyl)oxy)-2-naphthamido)-3-methyl-3-phenylbutanoic Acid] gave an EC50 of 0.3 µM and an Emax of 63.6%.

`C=CCOc1ccc(C[C@H](NC(=O)c2ccc3ccccc3c2OCc2ccc(C(F)(F)F)cc2)C(=O)O)cc1` [Example 92, (S)-3-(4-(allyloxy)phenyl)-2-(1-((4-(trifluoromethyl)benzyl)oxy)-2-naphthamido)propanoic Acid] displayed an EC50 of 14 µM and an Emax of 52.6%.

In turn, `O=C(N[C@@H](Cc1ccc(C(F)(F)F)cc1)C(=O)O)c1ccc2cc(F)ccc2c1OCC1CCCCC1` [Example 204, (S)-2-(1-(cyclohexylmethoxy)-6-fluoro-2-naphthamido)-3-(4-(trifluoromethyl)phenyl)propanoic Acid] returned an Emax of 6.8%.

As for `CC(C)(C)[C@H](NC(=O)c1ccc2ccccc2c1OCC1CCC(CO)CC1)C(=O)O` (stereo partly drawn) [Example 29, (S)-2-(1-((4-(hydroxymethyl)cyclohexyl)methoxy)-2-naphthamido)-3,3-dimethylbutanoic Acid], the Emax came to 27.8%.

Take `O=C(N[C@@H](Cc1ccc(C(F)(F)F)cc1)C(=O)O)c1ccc2ccccc2c1OCC1CCCCC1` [Example 200, (S)-2-(1-(cyclohexylmethoxy)-2-naphthamido)-3-(4-(trifluoromethyl)phenyl)propanoic Acid]: the EC50 was 20.5 µM and the Emax came out at 65.4%.

On to `CCCC(C)(CC)[C@H](NC(=O)c1ccc2ccc(F)cc2c1OCc1ccc(OC(F)(F)F)cc1)C(=O)O` (stereo partly drawn) [compound 290, (2S)-3-ethyl-2-(7-fluoro-1-((4-(trifluoromethoxy)benzyl)oxy)-2-naphthamido)-3-methylhexanoic Acid], for which it took 0.2 µM to reach a half-maximal effect (EC50) and the Emax stood at 225%.
